In patent publication US20250346597A1, “CONDENSED HETEROCYCLIC COMPOUNDS AS INHIBITOR OF DIACYLGLYCEROL KINASES” (BEONE MEDICINES I GMBH, priority 2023, published 2025):

Columns and labels:
DGKα = DGKα (Homo sapiens (Human), UniProt P23743); assay: Biochemical DGK IC50 assay (ADP-Glo, lipid micelle substrate), DGKα; conditions: full length DGKα […], ATP 140 μM, DAG 80 μM; further: full length DGKα 7.5 nM
Summary of the method: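 Full-length human DGKα assayed by ADP-Glo with DAG/PS lipid micelle substrate at room temperature in 50 mM HEPES, 10 mM MgCl2, 0.01% BSA, 0.1 mM Na3VO4, 0.005% Tween-20, 0.01 mM CaCl2.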

DGKζ = DGKζ (Homo sapiens (Human), UniProt Q13574); assay: Biochemical DGK IC50 assay (ADP-Glo, lipid micelle substrate), DGKζ; conditions: full length DGKζ 0.5 nM, ATP 140 μM, DAG 80 μM
Chain of DGKζ (Q13574 other isoform, or with tags, fused parts or gaps): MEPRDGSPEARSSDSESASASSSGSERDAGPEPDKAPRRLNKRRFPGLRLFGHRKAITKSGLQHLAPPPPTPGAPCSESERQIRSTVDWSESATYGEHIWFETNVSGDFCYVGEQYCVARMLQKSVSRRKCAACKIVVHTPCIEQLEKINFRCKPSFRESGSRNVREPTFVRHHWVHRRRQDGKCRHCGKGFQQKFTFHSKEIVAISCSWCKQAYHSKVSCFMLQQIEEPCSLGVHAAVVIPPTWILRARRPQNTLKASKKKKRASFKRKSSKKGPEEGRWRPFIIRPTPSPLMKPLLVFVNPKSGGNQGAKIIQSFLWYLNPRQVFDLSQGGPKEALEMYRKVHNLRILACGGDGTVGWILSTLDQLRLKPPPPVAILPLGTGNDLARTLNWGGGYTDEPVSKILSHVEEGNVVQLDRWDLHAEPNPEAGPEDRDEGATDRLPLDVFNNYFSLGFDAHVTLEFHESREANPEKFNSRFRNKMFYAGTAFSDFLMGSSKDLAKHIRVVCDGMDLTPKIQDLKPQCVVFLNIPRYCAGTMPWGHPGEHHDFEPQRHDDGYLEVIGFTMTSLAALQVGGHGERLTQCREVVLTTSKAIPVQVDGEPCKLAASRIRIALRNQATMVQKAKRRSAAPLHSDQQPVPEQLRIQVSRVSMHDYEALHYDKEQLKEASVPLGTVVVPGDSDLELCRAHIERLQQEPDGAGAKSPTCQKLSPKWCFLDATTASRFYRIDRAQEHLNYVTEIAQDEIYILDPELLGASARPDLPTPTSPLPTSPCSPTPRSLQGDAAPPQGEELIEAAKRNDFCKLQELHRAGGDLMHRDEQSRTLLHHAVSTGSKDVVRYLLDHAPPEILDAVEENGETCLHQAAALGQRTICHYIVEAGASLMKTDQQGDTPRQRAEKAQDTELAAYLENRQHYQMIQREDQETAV
Summary of the method: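 Full-length human His-TEV-tagged DGKζ, expressed in Sf9 cells and purified, was run at room temperature on DAG/PS lipid micelles in 50 mM HEPES, 10 mM MgCl2, 0.01 mM CaCl2 buffer. After 1 h reaction, ADP formed was detected by ADP-Glo luminescence. IC50s came from inhibition across increasing compound concentrations.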

Chain of DGKα (P23743 whole entry): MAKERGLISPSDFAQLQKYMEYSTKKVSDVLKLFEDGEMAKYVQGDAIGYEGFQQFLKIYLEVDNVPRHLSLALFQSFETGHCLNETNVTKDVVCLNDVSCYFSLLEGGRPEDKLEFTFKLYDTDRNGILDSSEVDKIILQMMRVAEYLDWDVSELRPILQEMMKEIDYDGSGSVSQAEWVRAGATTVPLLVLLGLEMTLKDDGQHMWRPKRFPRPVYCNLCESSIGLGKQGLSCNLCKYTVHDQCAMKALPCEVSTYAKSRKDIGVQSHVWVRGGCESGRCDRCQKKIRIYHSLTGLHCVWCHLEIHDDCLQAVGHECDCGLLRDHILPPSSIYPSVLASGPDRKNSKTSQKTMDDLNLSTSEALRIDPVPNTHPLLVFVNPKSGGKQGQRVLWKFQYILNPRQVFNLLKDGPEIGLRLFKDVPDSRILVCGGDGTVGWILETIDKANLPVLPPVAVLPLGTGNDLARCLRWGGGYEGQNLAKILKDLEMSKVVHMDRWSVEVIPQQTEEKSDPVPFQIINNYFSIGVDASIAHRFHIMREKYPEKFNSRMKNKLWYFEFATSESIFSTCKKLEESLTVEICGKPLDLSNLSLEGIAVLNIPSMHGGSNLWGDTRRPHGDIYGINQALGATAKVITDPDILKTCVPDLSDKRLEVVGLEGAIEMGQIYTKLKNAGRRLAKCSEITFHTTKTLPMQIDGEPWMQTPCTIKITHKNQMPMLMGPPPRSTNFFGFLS

Compound | IC50 (DGKα) [nM] | IC50 (DGKζ) [nM]
CC[C@H]1CN(C(C)c2ccc(CC3COC3)cc2)[C@H](CC)CN1c1cc(=O)n(C)c2cn(CC#N)nc12 (stereo partly drawn) [Compound A183, 2-(7-((2S,5R)-2,5-diethyl-4-(1-(4-(oxetan-3-ylmethyl)phenyl)ethyl)piperazin-1-yl)-4-methyl-5-oxo-4,5-dihydro-2H-pyrazolo[4,3-b]pyridin-2-yl)acetonitrile] | 48.2 | 517
CC[C@H]1CN(C(C)c2ccc3c(c2)OCO3)[C@H](CC)CN1c1cc(=O)n(C)c2cn(CC#N)nc12 (stereo partly drawn) [Compound A185, 2-(7-((2S,5R)4-(1-(benzo[d][1,3]dioxol-5-yl)ethyl)-2,5-diethylpiperazin-1-yl)-4-methyl-5-oxo-4,5-dihydro-2H-pyrazolo[4,3-b]pyridin-2-yl)acetonitrile] | 164 | 66.4
CC[C@H]1CN(C(C)c2ccc(CN3CCS(=O)(=O)CC3)cc2)[C@H](CC)CN1c1cc(=O)n(C)c2cn(CC#N)nc12 (stereo partly drawn) [Compound A192, 2-(7-((2S,5R)-4-(1-(4-((1,1-dioxidothiomorpholino)methyl)phenyl)ethyl)-2,5-diethylpiperazin-1-yl)-4-methyl-5-oxo-4,5-dihydro-2H-pyrazolo[4,3-b]pyridin-2-yl)acetonitrile] | 729 | 579
CC[C@H]1CN(C(C)c2cc3c(cn2)OCC3)[C@H](CC)CN1c1cc(=O)n(C)c2cn(CC#N)nc12 (stereo partly drawn) [Compound A196, 2-(7-((2S,5R)-4-(1-(2,3-dihydrofuro[2,3-c]pyridin-5-yl)ethyl)-2,5-diethylpiperazin-1-yl)-4-methyl-5-oxo-4,5-dihydro-2H-pyrazolo[4,3-b]pyridin-2-yl)acetonitrile] | 1020 | 552
CC[C@H]1CN(C(C)c2ccc3c(c2)OC(F)(F)O3)[C@H](CC)CN1c1cc(=O)n(C)c2cn(CC#N)nc12 (stereo partly drawn) [Compound A197, 2-(7-((2S,5R)-4-(1-(2,2-difluorobenzo[d][1,3]dioxol-5-yl)ethyl)-2,5-diethylpiperazin-1-yl)-4-methyl-5-oxo-4,5-dihydro-2H-pyrazolo[4,3-b]pyridin-2-yl)acetonitrile] | 711 | 252
CC[C@H]1CN(C(C)c2ccc(CS(C)(=O)=O)cc2)[C@H](CC)CN1c1cc(=O)n(C)c2cn(CC#N)nc12 (stereo partly drawn) [Compound A198, 2-(7-((2S,5R)-2,5-diethyl-4-(1-(4-((methylsulfonyl)methyl)phenyl)ethyl)piperazin-1-yl)-4-methyl-5-oxo-4,5-dihydro-2H-pyrazolo[4,3-b]pyridin-2-yl)acetonitrile] | 91 | 5560
CC[C@H]1CN(C(C)c2ccc(C(C)(F)F)nc2)[C@H](CC)CN1c1cc(=O)n(C)c2cn(CC#N)nc12 (stereo partly drawn) [Compound A199, 2-(7-((2S,5R)-4-(1-(6-(1,1-difluoroethyl)pyridin-3-yl)ethyl)-2,5-diethylpiperazin-1-yl)-4-methyl-5-oxo-4,5-dihydro-2H-pyrazolo[4,3-b]pyridin-2-yl)acetonitrile] | 2170 | 112
CC[C@H]1CN(C(C)c2ccc(C(=O)N3CCC(OC)C3)cc2)[C@H](CC)CN1c1cc(=O)n(C)c2cn(CC#N)nc12 (stereo partly drawn) [Compound A202, 2-(7-((2S,5R)-2,5-diethyl-4-(1-(4-(3-methoxypyrrolidine-1-carbonyl)phenyl)ethyl)piperazin-1-yl)-4-methyl-5-oxo-4,5-dihydro-2H-pyrazolo[4,3-b]pyridin-2-yl)acetonitrile] | 352 | 3210
CC[C@H]1CN(C(C)c2ccc(COC)cc2)[C@H](CC)CN1c1cc(=O)n(C)c2cn(CC#N)nc12 (stereo partly drawn) [Compound A205, 2-(7-((2S,5R)-2,5-diethyl-4-(1-(4-(methoxymethyl)phenyl)ethyl)piperazin-1-yl)-4-methyl-5-oxo-4,5-dihydro-2H-pyrazolo[4,3-b]pyridin-2-yl)acetonitrile] | 215 | 142

Now from value to compound:

IC50 (DGKα) [nM] | IC50 (DGKζ) [nM] | Compound
54 | 281 | CC[C@H]1CN(C(C)c2ccc(CN3CCC(F)(F)CC3)cn2)[C@H](CC)CN1c1cc(=O)n(C)c2cn(CC#N)nc12 (stereo partly drawn) [Compound A182, 2-(7-((2S,5R)-4-(1-(5-((4,4-difluoropiperidin-1-yl)methyl)pyridin-2-yl)ethyl)-2,5-diethylpiperazin-1-yl)-4-methyl-5-oxo-4,5-dihydro-2H-pyrazolo[4,3-b]pyridin-2-yl)acetonitrile]
45 | 651 | CC[C@H]1CN(C(C)c2ccc(CC#N)cc2)[C@H](CC)CN1c1cc(=O)n(C)c2cn(CC#N)nc12 (stereo partly drawn) [Compound A190, 2-(4-(1-((2R,5S)-4-(2-(cyanomethyl)-4-methyl-5-oxo-4,5-dihydro-2H-pyrazolo[4,3-b]pyridin-7-yl)-2,5-diethylpiperazin-1-yl)ethyl)phenyl)acetonitrile]
< 23.3 | 285 | CC[C@H]1CN(C(C)c2ccc(C#N)cc2)[C@H](CC)CN1c1cc(=O)n(C)c2cn(CC#N)nc12 (stereo partly drawn) [Compound A191, 4-(1-((2R,5S)-4-(2-(cyanomethyl)-4-methyl-5-oxo-4,5-dihydro-2H-pyrazolo[4,3-b]pyridin-7-y)-2,5-diethylpiperazin-1-yl)ethyl)benzonitrile]
< 23.3 | 991 | CC#CCn1cc2c(n1)c(N1C[C@@H](CC)N(C(C)c3ccc4c(n3)OCC4)C[C@@H]1C)cc(=O)n2C (stereo partly drawn) [Compound A200, 2-(but-2-yn-1-yl)-7-((2S,5R)-4-(1-(2,3-dihydrofuro[2,3-b]pyridin-6-yl)ethyl)-5-ethyl-2-methylpiperazin-1-yl)-4-methyl-2,4-dihydro-5H-pyrazolo[4,3-b]pyridin-5-one]
43 | 123 | CC[C@H]1CN(C(C)c2ccc(OC3CC3)cn2)[C@H](CC)CN1c1cc(=O)n(C)c2cn(CC#N)nc12 (stereo partly drawn) [Compound A201, 2-(7-((2S,5R)-4-(1-(5-cyclopropoxypyridin-2-yl)ethyl)-2,5-diethylpiperazin-1-yl)-4-methyl-5-oxo-4,5-dihydro-2H-pyrazolo[4,3-b]pyridin-2-yl)acetonitrile]
